Data reported in US11884647B2, “Compounds and methods for targeting pathogenic blood vessels” (THE REGENTS OF THE UNIVERSITY OF CALIFORNIA, priority 2019, dated 2024).

Test system: tumor endothelial cells (LL/2 lung cancer tumor)
Experiment: Lung LL2 ex vivo model of tumor angiogenesis
Assay type: cell-based, mouse
Conditions: Lung LL2 ex vivo; Conc. 20 μm; (24 hrs)
Summary of the method: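 Mouse LL2 tumor fragments (~0.5×0.5×0.3 mm) embedded in Matrigel and grown in endothelial growth medium at 37° C until endothelial outgrowth (about 4 days) before drug treatment. About 48 h after drug addition, stained 10 min with fluorescein diacetate/propidium iodide; live (green) and dead (red) cells imaged at 2× with fixed channel settings.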

| SMILES | Cell death (24 hrs) [%] | Morphology observations (24 hrs) |
| --- | --- | --- |
| CCCCCCCCCCOc1ccc(S(=O)(=O)c2cnc3ccc([S+](C)[O-])cc3c2N2CCC(N3CCC(N4CCCN(C)CC4)CC3)CC2)cc1 (stereo not drawn) [compound 287, 3-((4-(decyloxy)phenyl)sulfonyl)-4-(4-(4-methyl-1,4-diazepan-1-yl)-[1,4′-bipiperidin]-1′-yl)-6-(methylsulfinyl)quinoline] | 40 | * (50% or less of cells vesicularize in cell shape) |

Same assay, conditions: Lung LL2 ex vivo; Conc. 40 μm; drug treatment two days

| SMILES | Cell death [%] |
| --- | --- |
| CNC(=O)c1ccc2ncc(S(=O)(=O)c3ccc(OC)cc3)c(N3CCC(N4CCCCC4)CC3)c2c1 [compound 143, 4-([1,4′-bipiperidin]-1′-yl)-3-((4-methoxyphenyl)sulfonyl)-N-methylquinoline-6-carboxamide] | 40 |
| CCCCOc1ccc(S(=O)(=O)c2cnc3ccc(SC)cc3c2N2CCCN(C3CCS(=O)(=O)CC3)CC2)cc1 [compound 359, 4-(4-(3-((4-butoxyphenyl)sulfonyl)-6-(methylthio)quinolin-4-yl)-1,4-diazepan-1-yl)tetrahydro-2H-thiopyran 1,1-dioxide] | 20 |
| CCCCOc1ccc(S(=O)(=O)c2cnc3ccc(C(=O)OCC)cc3c2N2CCN(c3ccc(F)cc3)CC2)cc1 [compound 213, ethyl 3-((4-butoxyphenyl)sulfonyl)-4-(4-(4-fluorophenyl)piperazin-1-yl)quinoline-6-carboxylate] | 30 |

Same assay, conditions: Mus musculus, Endothelial cell, 48 h, read-out: Cell death

| SMILES | cytotoxicity at 40 µM [%] | cytotoxicity at 20 µM [%] | cytotoxicity at 10 µM [%] |
| --- | --- | --- | --- |
| CCOC(=O)c1ccc2ncc(S(=O)(=O)c3ccc(OC)cc3)c(N3CCC(N4CCCCCC4)CC3)c2c1 [compound 173, ethyl 4-(4-(azepan-1-yl)piperidin-1-yl)-3-((4-methoxyphenyl)sulfonyl)quinoline-6-carboxylate] | 50 |  |  |
| CCN(CC)CCOc1ccc(S(=O)(=O)c2cnc3ccc(SC)cc3c2N2CCCN(C)CC2)cc1 [compound 242, N,N-diethyl-2-(4-((4-(4-methyl-1,4-diazepan-1-yl)-6-(methylthio)quinolin-3-yl)sulfonyl)phenoxy)ethan-1-amine] | 30 |  |  |
| CCCCOc1ccc(S(=O)(=O)c2cnc3ccc(S(C)(=O)=O)cc3c2N2CCC(N3CCCCC3)CC2)cc1 [compound 169, 4-([1,4′-bipiperidin]-1′-yl)-3-((4-butoxyphenyl)sulfonyl)-6-(methylsulfonyl)quinoline] |  | 40 |  |
| CCCCOc1ccc(S(=O)(=O)c2cnc3ccc(C(=O)OCC)cc3c2N2CCCN(CCN3CCCCC3)CC2)cc1 [compound 181, ethyl 3-((4-butoxyphenyl)sulfonyl)-4-(4-(2-(piperidin-1-yl)ethyl)-1,4-diazepan-1-yl)quinoline-6-carboxylate] | 100 |  |  |
| CCCCOc1ccc(S(=O)(=O)c2cnc3ccc([S+](C)[O-])cc3c2N2CCC(N3CCN(CCO)CC3)CC2)cc1 (stereo not drawn) [compound 236, 2-(4-(1-(3-((4-butoxyphenyl)sulfonyl)-6-(methylsulfinyl)quinolin-4-yl)piperidin-4-yl)piperazin-1-yl)ethan-1-ol] | 5 |  |  |
| CCCCOc1ccc(S(=O)(=O)c2cnc3ccc(S(C)(=O)=O)cc3c2N2CCC(N3CCC(O)CC3)CC2)cc1 [compound 170, 1′-(3-((4-butoxyphenyl)sulfonyl)-6-(methylsulfonyl)quinolin-4-yl)-[1,4′-bipiperidin]-4-ol] |  | 10 |  |
| COc1ccc(S(=O)(=O)c2cnc3ccc(C(=O)N(C)C)cc3c2N2CCC(N3CCCCC3)CC2)cc1 [compound 331, 4-([1,4′-bipiperidin]-1′-yl)-3-((4-methoxyphenyl)sulfonyl)-N,N-dimethylquinoline-6-carboxamide] | 10 |  |  |
| CCCCCCCOc1ccc(S(=O)(=O)c2cnc3ccc(SC)cc3c2N2CCN(CCN3CCCC3)CC2)cc1 [compound 272, 3-((4-(heptyloxy)phenyl)sulfonyl)-6-(methylthio)-4-(4-(2-(pyrrolidin-1-yl)ethyl)piperazin-1-yl)quinoline] |  | 20 |  |
| COc1ccc(S(=O)(=O)c2cnc3cc(OC)c(OC)cc3c2N2CCCN(CC3(O)CCCC3)CC2)cc1 [compound 325, 1-((4-(6,7-dimethoxy-3-((4-methoxyphenyl)sulfonyl)quinolin-4-yl)-1,4-diazepan-1-yl)methyl)cyclopentan-1-ol] | 30 |  |  |
| CCCCOc1ccc(S(=O)(=O)c2cnc3ccc(OC(F)(F)F)cc3c2N2CC[S+]([O-])CC2)cc1 [compound 197, 4-(3-((4-butoxyphenyl)sulfonyl)-6-(trifluoromethoxy)quinolin-4-yl)thiomorpholine 1-oxide] | 20 |  |  |
| CCCCOc1ccc(S(=O)(=O)c2cnc3ccc(C(=O)OCC)cc3c2N2CCC(N3CCSCC3)CC2)cc1 [compound 217, ethyl 3-((4-butoxyphenyl)sulfonyl)-4-(4-thiomorpholinopiperidin-1-yl)quinoline-6-carboxylate] | 30 |  |  |
| CCc1ccc(S(=O)(=O)c2cnc3ccc(OC(F)(F)F)cc3c2NN2CCOCC2)cc1 [compound 126, N-(3-((4-ethylphenyl)sulfonyl)-6-(trifluoromethoxy)quinolin-4-yl)morpholin-4-amine] |  | 10 |  |
| CCCCOc1ccc(S(=O)(=O)c2cnc3ccc(C(=O)OCC)cc3c2N2CCS(=O)(=O)CC2)cc1 [compound 196, ethyl 3-((4-butoxyphenyl)sulfonyl)-4-(1,1-dioxidothiomorpholino)quinoline-6-carboxylate] | 30 |  |  |
| CCCCCCCCCCOc1ccc(S(=O)(=O)c2cnc3ccc([S+](C)[O-])cc3c2N2CCC(N3CCC(O)(c4ccccc4)CC3)CC2)cc1 (stereo not drawn) [compound 270, 1′-(3-((4-(decyloxy)phenyl)sulfonyl)-6-(methylsulfinyl)quinolin-4-yl)-4-phenyl-[1,4′-bipiperidin]-4-ol] |  | 50 |  |
| CCCCCCCCCCOc1ccc(S(=O)(=O)c2cnc3ccc([S+](C)[O-])cc3c2N2CCC(N3CCC(N4CCCCC4)CC3)CC2)cc1 (stereo not drawn) [compound 269, 4-([1,4′:1′,4″-terpiperidin]-1″-yl)-3-((4-(decyloxy)phenyl)sulfonyl)-6-(methylsulfinyl)quinoline] |  | 100 |  |
| CCCCCCCOc1ccc(S(=O)(=O)c2cnc3ccc([S+](C)[O-])cc3c2N2CCN(CCN3CCCCC3)CC2)cc1 (stereo not drawn) [compound 282, 3-((4-(heptyloxy)phenyl)sulfonyl)-6-(methylsulfinyl)-4-(4-(2-(piperidin-1-yl)ethyl)piperazin-1-yl)quinoline] |  |  | 10 |
| CCCCCCCCCCOc1ccc(S(=O)(=O)c2cnc3ccc([S+](C)[O-])cc3c2N2CCC(N3CCCN(C)CC3)CC2)cc1 (stereo not drawn) [compound 267, 3-((4-(decyloxy)phenyl)sulfonyl)-4-(4-(4-methyl-1,4-diazepan-1-yl)piperidin-1-yl)-6-(methylsulfinyl)quinoline] |  |  | 5 |
| CCCCCCCCCCCCCCOc1ccc(S(=O)(=O)c2cnc3ccc([S+](C)[O-])cc3c2N2CCC(N3CCN(CCO)CC3)CC2)cc1F (stereo not drawn) [compound 365, 2-(4-(1-(3-((3-fluoro-4-(tetradecyloxy)phenyl)sulfonyl)-6-(methylsulfinyl)quinolin-4-yl)piperidin-4-yl)piperazin-1-yl)ethanol] |  | 20 |  |
| CCOC(=O)c1ccc2ncc(S(=O)(=O)c3ccc(OC)cc3)c(N3CCC(N4CCCC(O)C4)CC3)c2c1 (stereo not drawn) [compound 174, ethyl 4-(3-hydroxy-[1,4′-bipiperidin]-1′-yl)-3-((4-methoxyphenyl)sulfonyl)quinoline-6-carboxylate] | 30 |  |  |
